“And” between values parts separate entries of the source, which are not always exact repeats. Equal values may be shown once. Inconclusive results and toxic doses are left out. Rule for the calls: active = survival T/C of 150% or more; inactive = T/C below 125% in these data.
Test system: B6C3F1 mice, Lewis lung carcinoma iv, survival T/C
Experiment: NCI In Vivo Anticancer Drug Screen. Data for tumor model Lewis Lung Carcinoma (intravenous) in B6C3F1 mice
Details: endpoint: median survival time, schedule: Q01DX009 (ip), higher = longer survival
How it was run: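 Antitumor activity is assessed in tumor-bearing mice by comparing survival after compound treatment against vehicle-treated controls, reported as a T/C ratio.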

[1] = dose: 12.5 mg/kg/injection, vehicle: saline
[2] = dose: 25.0 mg/kg/injection, vehicle: saline
[3] = dose: 50.0 mg/kg/injection, vehicle: saline
[4] = dose: 25.0 mg/kg/injection, vehicle: Klucel (hydroxypropylcellulose) (HPC)
[5] = dose: 50.0 mg/kg/injection, vehicle: Klucel (hydroxypropylcellulose) (HPC)
[6] = dose: 100.0 mg/kg/injection, vehicle: Klucel (hydroxypropylcellulose) (HPC)
[7] = dose: 200.0 mg/kg/injection, vehicle: Klucel (hydroxypropylcellulose) (HPC)
[8] = dose: 12.5 mg/kg/injection, vehicle: saline with Tween-80
[9] = dose: 25.0 mg/kg/injection, vehicle: saline with Tween-80
[10] = dose: 50.0 mg/kg/injection, vehicle: saline with Tween-80
[11] = dose: 100.0 mg/kg/injection, vehicle: saline with Tween-80
[12] = dose: 100.0 mg/kg/injection, vehicle: saline
[13] = dose: 200.0 mg/kg/injection, vehicle: saline

Measured: T/C

CCC(C(=O)O)C(=O)O.[NH-]CC1CCCC[N-]1.[Pt+2]
inactive: [1] 105 % of control | dose: 12.5 mg/kg/injection, vehicle: suspension in saline 103 % of control | [2] 106 % of control | dose: 25.0 mg/kg/injection, vehicle: suspension in saline 104 % of control | [3] 113 % of control | dose: 50.0 mg/kg/injection, vehicle: suspension in saline 116 % of control | dose: 100.0 mg/kg/injection, vehicle: suspension in saline 123 % of control

CO[C@@]12[C@H](COC(N)=O)C3=C(C(=O)C(C)=C(N)C3=O)N1C[C@@H]1N[C@@H]12
inactive: dose: 0.12 mg/kg/injection, vehicle: saline 101 % of control | dose: 0.25 mg/kg/injection, vehicle: saline 103 % of control and 109 % of control | dose: 0.5 mg/kg/injection, vehicle: saline 118 % of control | dose: 1.0 mg/kg/injection, vehicle: saline 107 % of control

Cn1cc(C2NC(=O)c3ccccc3N2)c2ccccc21 (stereo unspecified)
inactive: [4] 104 % of control | [5] 105 % of control | [6] 100 % of control | [7] 104 % of control

O=C(O)CC(=O)O.[NH-]CC[NH-].[Pt+2]
inactive: dose: 1.56 mg/kg/injection, vehicle: dextrose 108 % of control | dose: 3.12 mg/kg/injection, vehicle: dextrose 107 % of control and 120 % of control | dose: 6.25 mg/kg/injection, vehicle: dextrose 105 % of control and 109 % of control | dose: 12.5 mg/kg/injection, vehicle: dextrose 102 % of control and 119 % of control

CC(=O)OCC1(C)NC(=O)c2ccccc2O1 (stereo unspecified)
inactive: [8] 114 % of control | [9] 96 % of control | [10] 100 % of control | [11] 104 % of control | dose: 200.0 mg/kg/injection, vehicle: saline with Tween-80 114 % of control | dose: 400.0 mg/kg/injection, vehicle: saline with Tween-80 100 % of control

Oc1c(Cl)cc(Cl)cc1C=NCCSc1ccc(Cl)cc1
inactive: [4] 94 % of control and 105 % of control | [5] 98 % of control and 101 % of control | [6] 97 % of control and 101 % of control | [7] 97 % of control and 105 % of control | dose: 400.0 mg/kg/injection, vehicle: Klucel (hydroxypropylcellulose) (HPC) 101 % of control

O=C(CN1CCOCC1)Nc1nc(-c2ccc(Cl)cc2)cs1
inactive: dose: 50.0 mg/kg/injection, vehicle: DMSO 91 % of control | dose: 100.0 mg/kg/injection, vehicle: DMSO 92 % of control | dose: 200.0 mg/kg/injection, vehicle: DMSO 103 % of control | dose: 400.0 mg/kg/injection, vehicle: DMSO 100 % of control | dose: 800.0 mg/kg/injection, vehicle: DMSO 95 % of control

O=C(Nc1cccc(Cl)c1)ON1C(=O)C2C(C1=O)C1(Cl)C(Cl)C(Cl)C2(Cl)C1(Cl)Cl (stereo unspecified)
inactive: [9] 95 % of control | [10] 97 % of control | [11] 87 % of control

CC1=CC(=Nc2ccc(N(CCCl)CCCl)cc2)C=C(C)C1=O
inactive: [8] 109 % of control | [9] 116 % of control

c1ccc([P+](c2ccccc2)(c2ccccc2)c2ccccc2)cc1
inactive: dose: 0.09 mg/kg/injection, vehicle: saline 112 % of control | dose: 0.18 mg/kg/injection, vehicle: saline 112 % of control | dose: 0.37 mg/kg/injection, vehicle: saline 107 % of control | dose: 0.75 mg/kg/injection, vehicle: saline 105 % of control and 112 % of control | dose: 1.5 mg/kg/injection, vehicle: saline 103 % of control and 111 % of control | dose: 3.0 mg/kg/injection, vehicle: saline 95 % of control and 124 % of control | dose: 6.0 mg/kg/injection, vehicle: saline 94 % of control

COC(=O)c1ccoc1
inactive: [1] 100 % of control | [2] 111 % of control | [3] 97 % of control | [12] 108 % of control | [13] 117 % of control

CC(=O)CC(=O)CCC(=O)O
inactive: [2] 98 % of control | [3] 103 % of control | [12] 102 % of control | [13] 105 % of control

COC1CC(C)C(OC)C2=CC(=O)C=C(NC(=O)/C(C)=C/C=C\C(C)C(OC(N)=O)/C(C)=C\C(C)C1OC)C2=O (stereo unspecified)
inactive: dose: 5.0 mg/kg/injection, vehicle: saline + Tween-80 + alcohol 99 % of control | dose: 10.0 mg/kg/injection, vehicle: saline + Tween-80 + alcohol 112 % of control

NC(=O)NO
inactive: [3] 94 % of control | [12] 98 % of control | [13] 96 % of control

CCCCC(=O)OCC(=O)[C@]1(O)Cc2c(O)c3c(c(O)c2[C@@H](OC2CC(NC(=O)C(F)(F)F)C(O)C(C)O2)C1)C(=O)c1c(OC)cccc1C3=O (stereo partly specified)
inactive: dose: 4.0 mg/kg/injection, vehicle: Klucel (hydroxypropylcellulose) (HPC) 100 % of control | dose: 4.0 mg/kg/injection, vehicle: saline with Tween-80 107 % of control | dose: 8.0 mg/kg/injection, vehicle: Klucel (hydroxypropylcellulose) (HPC) 100 % of control | dose: 8.0 mg/kg/injection, vehicle: saline with Tween-80 88 % of control | dose: 16.0 mg/kg/injection, vehicle: Klucel (hydroxypropylcellulose) (HPC) 107 % of control | dose: 16.0 mg/kg/injection, vehicle: saline with Tween-80 96 % of control | dose: 32.0 mg/kg/injection, vehicle: Klucel (hydroxypropylcellulose) (HPC) 110 % of control | dose: 32.0 mg/kg/injection, vehicle: saline with Tween-80 108 % of control | dose: 64.0 mg/kg/injection, vehicle: Klucel (hydroxypropylcellulose) (HPC) 118 % of control | dose: 128.0 mg/kg/injection, vehicle: Klucel (hydroxypropylcellulose) (HPC) 120 % of control

From PubChem BioAssay AID276 (DTP/NCI, 2004)
